Data: PubChem BioAssay (NCI)
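Where inhibition never reached the appropriate level, the endpoint shown equals the highest concentration tested. Otherwise, values were interpolated linearly from a five-concentration, 48-hour dose response in 96-well plates. The concentration for 50% growth inhibition is given as GI50. The concentration for full growth arrest is given as TGI.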

Legend:
Experiment in all cases: NCI anticancer screen, dose series, 48 h
[1] = system: CCRF-CEM leukemia
[2] = system: NCI-H23 lung
[3] = system: SF-295 CNS
[4] = system: MCF7 breast
[5] = system: HOP-92 NSCLC
[6] = system: MDA-MB-435
[7] = system: OVCAR-8 ovarian
[8] = system: A549 NSCLC
[9] = system: SK-OV-3 ovarian
[10] = system: HCC-2998 colon
[11] = system: SNB-75 CNS
[12] = system: IGROV1 ovarian
[13] = system: HCT-116 colon
[14] = system: MOLT-4 leukemia
[15] = system: U251 CNS
[16] = system: SK-MEL-5 melanoma
[17] = system: MALME-3M melanoma
[18] = system: HCT-15 colon
[19] = system: OVCAR-4 ovarian
[20] = system: EKVX NSCLC
[21] = system: K-562 leukemia
[22] = system: A498 renal
[23] = system: SR leukemia
[24] = system: OVCAR-3 ovarian
[25] = system: DU-145 prostate
[26] = system: RXF 393 renal
[27] = system: RPMI-8226 leukemia
[28] = system: T-47D breast
[29] = system: MDA-MB-231 breast
[30] = system: SF-539 CNS
[31] = system: CAKI-1 renal
[32] = system: COLO 205 colon
[33] = system: SNB-19 CNS
[34] = system: SK-MEL-28 melanoma
[35] = system: SN12C renal
[36] = system: HOP-62 NSCLC
[37] = system: LOX IMVI melanoma
[38] = system: KM12 colon
[39] = system: UO-31 renal
[40] = system: NCI-H226 lung
[41] = system: HL-60(TB) leukemia
[42] = system: UACC-62 melanoma
[43] = system: SF-268 CNS
[44] = system: TK-10 renal
[45] = system: SW-620 colon
[46] = system: ACHN renal
[47] = system: NCI-H522 lung
[48] = system: NCI-H460 lung
[49] = system: OVCAR-5 ovarian

## CCOC(=O)c1c(NC(=O)c2cccc(C(F)(F)F)c2)sc2c3c(ccc12)OCN(C)C3
[1]
  GI50: 1560 nM
  TGI: 4620 nM
[2]
  GI50: 1890 nM
  TGI: 3840 nM
[3]
  GI50: 1780 nM
  TGI: 3350 nM
[4]
  GI50: 1670 nM
  TGI: 3300 nM
[5]
  GI50: 1400 nM
  TGI: 3050 nM
[6]
  GI50: 1690 nM
  TGI: 3130 nM
[7]
  GI50: 2260 nM
  TGI: 5240 nM
[8]
  GI50: 2070 nM
  TGI: 4900 nM
[9]
  GI50: 2070 nM
  TGI: 4310 nM
[10]
  GI50: 1520 nM
  TGI: 2980 nM
[11]
  GI50: 1530 nM
  TGI: 3280 nM
[12]
  GI50: 1690 nM
  TGI: 3500 nM
[13]
  GI50: 1950 nM
  TGI: 4740 nM
[14]
  GI50: 1860 nM
  TGI: 4540 nM
[15]
  GI50: 1850 nM
  TGI: 3930 nM
[16]
  GI50: 1770 nM
  TGI: 3270 nM
[17]
  GI50: 1980 nM
  TGI: 3740 nM
[18]
  GI50: 1310 nM
  TGI: 2690 nM
[19]
  GI50: 1790 nM
  TGI: 3610 nM
[20]
  GI50: 1640 nM
  TGI: 3240 nM
[21]
  GI50: 394 nM
  TGI: 1800 nM
[22]
  GI50: 1630 nM
  TGI: 3070 nM
[23]
  GI50: 463 nM
  TGI: 4580 nM
[24]
  GI50: 1700 nM
  TGI: 3210 nM
[25]
  GI50: 1790 nM
  TGI: 3230 nM
[26]
  GI50: 1470 nM
  TGI: 3020 nM
[27]
  GI50: 1540 nM
  TGI: 4270 nM
[28]
  GI50: 1940 nM
  TGI: 4570 nM
[29]
  GI50: 1700 nM
  TGI: 3330 nM
[30]
  GI50: 1660 nM
  TGI: 3190 nM
[31]
  GI50: 1570 nM
  TGI: 2990 nM
[32]
  GI50: 2210 nM
  TGI: 5080 nM
[33]
  GI50: 1790 nM
  TGI: 3640 nM
[34]
  GI50: 1710 nM
  TGI: 3140 nM
[35]
  GI50: 1800 nM
  TGI: 3530 nM
[36]
  GI50: 2330 nM
  TGI: 6080 nM
[37]
  GI50: 1680 nM
  TGI: 3250 nM
[38]
  GI50: 1680 nM
  TGI: 3190 nM
[39]
  GI50: 1530 nM
  TGI: 2940 nM
[40]
  GI50: 1780 nM
  TGI: 3780 nM
[41]
  GI50: 1540 nM
  TGI: 4290 nM
[42]
  GI50: 1680 nM
  TGI: 3170 nM
[43]
  GI50: 1890 nM
  TGI: 3790 nM
[44]
  GI50: 1910 nM
  TGI: 3810 nM
[45]
  GI50: 873 nM
  TGI: 2270 nM
[46]
  GI50: 1760 nM
  TGI: 3270 nM
[47]
  GI50: 2220 nM
  TGI: 5550 nM
[48]
  GI50: 1640 nM
  TGI: 3280 nM
[49]
  GI50: 1670 nM
  TGI: 3150 nM
